Reference: patent US20230159511A1, “TETRAHYDROISOQUINOLINE COMPOUNDS AS NRF2 ACTIVATORS” (C4X Discovery Limited, priority 2020, published 2023)
Like-named read-outs stand apart in the source and are kept apart here.

Tests used:
[1] = test system: NRF2 mediated gene NAD(P)H:quinone acceptor oxidoreductase 1 (NQO1) in BEAS-2B cells; experiment: Beas2B NQO1 mRNA Cell Based Assay; design: species or system human; settings: Homo sapiens
Protocol: Beas2B NQO1 mRNA Cell Based Assay
The up regulation of the NRF2 mediated gene NAD(P)H:quinone acceptor oxidoreductase 1 (NQO1) was measured using the following assay method: BEAS-2B cells (ATCC CRL-9609) were plated in 96-well clear plates at 20,000 cells/well in 75 μL of cell culture media and incubated overnight (37° C., 5% CO2). On day 2, 25 μL of compound or controls were added to the cells for 24 h. On day 3, the medium was aspirated from the plate and the Cells-to-CT™ 1-Step TaqMan® Kit (Ambion A25603) was used to perform expression analysis directly from cultured cells without RNA purification according to the manufacturer's instructions.
Briefly, cells were washed with ice cold PBS and 22.5 μL of room-temperature DNase/Lysis solution was added to the cells and incubated at room temperature for 5 minutes. To stop the reaction, 2.25 μL of stop solution was added to the cell lysate. The samples were diluted 1:5 using nuclease free water and 2.5 μL transferred into the PCR plate. Real-time PCR was performed using the C-1000 Thermal Cycler (Bio-Rad) using human beta actin as the internal control. The cDNA was amplified with a specific primer for NQO1 using the 1-step RT-PCR master mix (Ambion Cells-to-CTTM 1-Step TaqMan® Kit A25603). The primers/probes sets that were used for amplification of cDNA were obtained from TaqMan Gene Expression Assays (Applied Biosystems). The comparative CT (ΔΔCT) relative quantification method was used to calculate the relative mRNA level of the target gene NQO1 as described in the Applied Biosystems Chemistry Guide. The data are expressed as an increase in target gene mRNA compared to vehicle (0.1% DMSO) control and the EC50 values were determined by fitting the data to a four parameter logistic fit using XLfit or XE Runner within ActivityBase.

[2] = molecular target: T1, human KEAP1 (N-term, residues 321-609) (Homo sapiens, UniProt Q14145); experiment: KEAP1 Kelch Fluorescence Polarization (FP) Assay; format: binding; settings: inhibition of Kelch domain-NRF2 interaction; 2 nM FITC-labelled NRF2 peptide, 25 nM KEAP1, 1 h room temperature; compounds below 10 nM cannot be differentiated
T1 construct: human KEAP1 (N-term, residues 321-609)
Method in brief: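 FP competition: 2 nM FITC-NRF2 peptide (LDEETGEFL) with 25 nM KEAP1 Kelch domain, pH 8.0 Tris buffer, 0.5% DMSO, 1 h at room temperature; 12-point 1:3 dilutions from 10 μM.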

[3] = BEAS-2B cells, compound for 24 h, increase in NQO1 mRNA compared to vehicle (0.1% DMSO) control, read-out: EC50

T1 sequence (Q14145 321-609): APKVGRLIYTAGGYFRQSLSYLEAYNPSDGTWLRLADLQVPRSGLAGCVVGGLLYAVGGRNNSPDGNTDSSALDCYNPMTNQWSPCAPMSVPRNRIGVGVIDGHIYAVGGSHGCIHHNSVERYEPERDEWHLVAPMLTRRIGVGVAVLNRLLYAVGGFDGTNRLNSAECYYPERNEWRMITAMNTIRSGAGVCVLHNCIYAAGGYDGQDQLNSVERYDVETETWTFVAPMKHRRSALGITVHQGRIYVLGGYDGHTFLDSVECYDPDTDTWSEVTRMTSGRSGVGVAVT

Row | SMILES | IC50 [2] [nM] | EC50 [1, 3] [nM] | EC50 ([1]; BEAS-2B, 24 h) [nM]
1 | CNC(=O)[C@H]1CCCC[C@H]1C(=O)N1CCc2c(Cl)ccc(OCc3cn(C)nn3)c2[C@H]1CN1CCCC1=O [Example 74, (1S,2R)-2-((S)-5-chloro-8-((1-methyl-1H-1,2,3-triazol-4-yl)methoxy)-1-((2-oxopyrrolidin-1-yl)methyl)-1,2,3,4-tetrahydroisoquinoline-2-carbonyl)-N-methylcyclohexane-1-carboxamide] | 16 | 334 | 
2 | CNC(=O)[C@H]1CCCC[C@H]1C(=O)N1CCc2c(Cl)ccc(OCc3cn4cccnc4n3)c2[C@H]1CN1CCCC1=O [Example 75, (1S,2R)-2-((S)-5-chloro-8-(imidazo[1,2-a]pyrimidin-2-ylmethoxy)-1-((2-oxopyrrolidin-1-yl)methyl)-1,2,3,4-tetrahydroisoquinoline-2-carbonyl)-N-methylcyclohexane-1-carboxamide] | 73 | 2170 | 
3 | O=C(NCC(F)(F)CO)[C@H]1CCCC[C@H]1C(=O)N1CCc2c(Cl)ccc(OCc3noc4ccccc34)c2[C@H]1CN1CCCC1=O [Example 78, (1S,2R)-2-((S)-8-(benzo[d]isoxazol-3-ylmethoxy)-5-chloro-1-((2-oxopyrrolidin-1-yl)methyl)-1,2,3,4-tetrahydroisoquinoline-2-carbonyl)-N-(2,2-difluoro-3-hydroxypropyl)cyclohexane-1-carboxamide] | 110 | > 10000 | 
4 | CNC(=O)N1CCCC[C@H]1C(=O)N1CCc2c(Cl)ccc(OCc3nnn(C)c3C(F)F)c2[C@H]1CN1CCCC1=O [Example 79, (S)-2-((S)-5-chloro-8-((5-(difluoromethyl)-1-methyl-1H-1,2,3-triazol-4-yl)methoxy)-1-((2-oxopyrrolidin-1-yl)methyl)-1,2,3,4-tetrahydroisoquinoline-2-carbonyl)-N-methylpiperidine-1-carboxamide] | 14 | 336 | 
5 | CNC(=O)[C@H]1CCCC[C@H]1C(=O)N1CCc2c(Cl)ccc(OCc3ccc4ncn(C)c4n3)c2[C@H]1CN1CCCC1=O [Example 80, (1S,2R)-2-((S)-5-chloro-8-((3-methyl-3H-imidazo[4,5-b]pyridin-5-yl)methoxy)-1-((2-oxopyrrolidin-1-yl)methyl)-1,2,3,4-tetrahydroisoquinoline-2-carbonyl)-N-methylcyclohexane-1-carboxamide] | 371 | 2250 | 
6 | CNC(=O)[C@H]1CCCC[C@H]1C(=O)N1CCc2c(Cl)ccc(OCc3nn(C)c4ccccc34)c2[C@H]1CN1CCCC1=O [Example 81, (1S,2R)-2-((S)-5-chloro-8-((1-methyl-1H-indazol-3-yl)methoxy)-1-((2-oxopyrrolidin-1-yl)methyl)-1,2,3,4-tetrahydroisoquinoline-2-carbonyl)-N-methylcyclohexane-1-carboxamide] | 723 | > 10000 | 
7 | Cn1nnc(COc2ccc(Cl)c3c2[C@@H](CN2CCCC2=O)N(C(=O)[C@@H]2CCCCN2C(=O)C(F)F)CC3)c1C(F)F [Example 84] | 161 |  | 1530
8 | CNC(=O)[C@H]1CCCC[C@H]1C(=O)N1CCc2c(Cl)ccc(OCc3nnc(C)n3C)c2[C@H]1CN1CCCC1=O [Example 86, (1S,2R)-2-((S)-5-chloro-8-((4,5-dimethyl-4H-1,2,4-triazol-3-yl)methoxy)-1-((2-oxopyrrolidin-1-yl)methyl)-1,2,3,4-tetrahydroisoquinoline-2-carbonyl)-N-methylcyclohexane-1-carboxamide] | 14 | 2420 | 
9 | CNC(=O)N1CCOC[C@H]1C(=O)N1CCc2c(Cl)ccc(OCc3nnn(C)c3C(F)F)c2[C@H]1CN1CCCC1=O [Example 87, (S)-3-((S)-5-chloro-8-((5-(difluoromethyl)-1-methyl-1H-1,2,3-triazol-4-yl)methoxy)-1-((2-oxopyrrolidin-1-yl)methyl)-1,2,3,4-tetrahydroisoquinoline-2-carbonyl)-N-methylmorpholine-4-carboxamide] | 39 | 4130 | 
10 | CNC(=O)N1CC2(CC2)C[C@H]1C(=O)N1CCc2c(Cl)ccc(OCc3nnn(C)c3C(F)F)c2[C@H]1CN1CCCC1=O [Example 88, (S)-6-((S)-5-chloro-8-((5-(difluoromethyl)-1-methyl-1 H-1,2,3-triazol-4-yl)methoxy)-1-((2-oxopyrrolidin-1-yl)methyl)-1,2,3,4-tetrahydroisoquinoline-2-carbonyl)-N-methyl-5-azaspiro[2.41]heptane-5-carboxamide] | 67 |  | 7560
11 | CNC(=O)N1CCC[C@H]1C(=O)N1CCc2c(Cl)ccc(OCc3cn(C)nn3)c2[C@H]1CN1CCCC1=O [Example 89, (S)-2-((S)-5-chloro-8-((1-methyl-1H-1,2,3-triazol-4-yl)methoxy)-1-((2-oxopyrrolidin-1-yl)methyl)-1,2,3,4-tetrahydroisoquinoline-2-carbonyl)-N-methylpyrrolidine-1-carboxamide] | 19 | 8720 | 

Compounds with a lower IC50 [2], results first:

Row | IC50 [2] [nM] | SMILES | EC50 [1, 3] [nM] | EC50 ([1]; BEAS-2B, 24 h) [nM]
12 | 11 | CNC(=O)[C@H]1CCCC[C@H]1C(=O)N1CCc2c(Cl)ccc(OCc3nnn(C)c3C(F)F)c2[C@H]1CN1Cc2ccccc2C1=O [Example 76, (1S,2R)-2-((S)-5-chloro-8-((5-(difluoromethyl)-1-methyl-1H-1,2,3-triazol-4-yl)methoxy)-1-((1-oxoisoindolin-2-yl)methyl)-1,2,3,4-tetrahydroisoquinoline-2-carbonyl)-N-methylcyclohexane-1-carboxamide] | 166 | 
13 | 7.2 | CNC(=O)[C@H]1CCCC[C@H]1C(=O)N1CCc2c(Cl)ccc(OCc3nnc4ccccn34)c2[C@H]1CN1Cc2ccccc2C1=O [Example 77, (1S,2R)-2-((S)-8-([1,2,4]triazolo[4,3-a]pyridin-3-ylmethoxy)-5-chloro-1-((1-oxoisoindolin-2-yl)methyl)-1,2,3,4-tetrahydroisoquinoline-2-carbonyl)-N-methylcyclohexane-1-carboxamide] | 77 | 
14 | 12 | CNC(=O)[C@@]1(C)CCCC[C@H]1C(=O)N1CCc2c(Cl)ccc(OCc3noc4ccccc34)c2[C@H]1CN1CCCC1=O [Example 83, (1S,2R)-2-((S)-8-(benzo[d]isoxazol-3-ylmethoxy)-5-chloro-1-((2-oxopyrrolidin-1-yl)methyl)-1,2,3,4-tetrahydroisoquinoline-2-carbonyl)-N,1-dimethylcyclohexane-1-carboxamide] | 473 | 
15 | 7.8 | CNC(=O)[C@@]1(C)CCC[C@H]1C(=O)N1CCc2c(Cl)ccc(OCc3nnn(C)c3C(F)F)c2[C@H]1CN1CCCC1=O [Example 85, (1S,2R)-2-((S)-5-chloro-8-((5-(difluoromethyl)-1-methyl-1H-1,2,3-triazol-4-yl)methoxy)-1-((2-oxopyrrolidin-1-yl)methyl)-1,2,3,4-tetrahydroisoquinoline-2-carbonyl)-N,1-dimethylcyclopentane-1-carboxamide] | 330 | 
16 | 7.9 | CNC(=O)[C@@]1(C)CCCC[C@H]1C(=O)N1CCc2c(Cl)ccc(OCc3nnn(C)c3C)c2[C@H]1CN1CCCC1=O [Example 90, (1S,2R)-2-((S)-5-chloro-8-((1,5-dimethyl-1H-1,2,3-triazol-4-yl)methoxy)-1-((2-oxopyrrolidin-1-yl)methyl)-1,2,3,4-tetrahydroisoquinoline-2-carbonyl)-N,1-dimethylcyclohexane-1-carboxamide] | 94 | 
17 | 9.8 | CNC(=O)[C@@]1(C)CCCC[C@H]1C(=O)N1CCc2c(Cl)ccc(OCc3nnn(C)c3C(F)(F)F)c2[C@H]1CN1CCCC1=O [Example 91, (1S,2R)-2-((S)-5-chloro-8-((1-methyl-5-(trifluoromethyl)-1H-1,2,3-triazol-4-yl)methoxy)-1-((2-oxopyrrolidin-1-yl)methyl)-1,2,3,4-tetrahydroisoquinoline-2-carbonyl)-N,1-dimethylcyclohexane-1-carboxamide] | 607 | 
18 | 12 | CNC(=O)N1CCCC[C@H]1C(=O)N1CCc2c(Cl)ccc(OCc3cn(C)nn3)c2[C@H]1CN1CCCC1=O [Example 92, (S)-2-((S)-5-chloro-8-((1-methyl-1H-1,2,3-triazol-4-yl)methoxy)-1-((2-oxopyrrolidin-1-yl)methyl)-1,2,3,4-tetrahydroisoquinoline-2-carbonyl)-N-methylpiperidine-1-carboxamide] | 565 | 
